Target: T1, MtbFHb (Mycobacterium tuberculosis, UniProt Q7ARS9)
T1 construct: gene Rv0385
T1 sequence (Q7ARS9 entry or part of it): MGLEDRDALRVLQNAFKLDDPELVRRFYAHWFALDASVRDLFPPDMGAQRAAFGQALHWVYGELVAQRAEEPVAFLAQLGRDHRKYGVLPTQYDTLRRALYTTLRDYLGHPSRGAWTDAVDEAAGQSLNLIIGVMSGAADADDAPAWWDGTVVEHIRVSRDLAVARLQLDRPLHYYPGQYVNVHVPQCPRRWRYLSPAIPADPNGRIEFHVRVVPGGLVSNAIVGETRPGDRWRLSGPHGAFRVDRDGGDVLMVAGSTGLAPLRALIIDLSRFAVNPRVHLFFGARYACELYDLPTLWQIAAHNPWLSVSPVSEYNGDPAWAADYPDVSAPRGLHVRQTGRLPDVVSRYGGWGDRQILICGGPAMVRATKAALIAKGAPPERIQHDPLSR

With `C[C@@H](O)C(=O)O` [D-lactate] the “far-UV circular dichroism (conformational change)” value was “These results confirmed a conformational change in MtbFHb during its interaction with D-lactate”.

From PMC8883573, “New Insights Into the Function of Flavohemoglobin in Mycobacterium tuberculosis: Role as a NADPH-Dependent Disulfide Reductase and D-Lactate-Dependent Mycothione Reductase” (Frontiers in Cellular and Infection Microbiology, 2022)
